Measured values published in article PMC6017299, “Ent-Clerodane Diterpenes from the Bark of Croton oligandrus Pierre ex Hutch. and Assessment of Their Cytotoxicity against Human Cancer Cell Lines” (Molecules : A Journal of Synthetic Chemistry and Natural …, 2018).
Read-outs that look alike come from different tables or passages of the source.

What was measured:
Format in all cases: cell-based
[1] = test system: A549 (adenocarcinoma human alveolar basal epithelial cell line); experiment: MTT cell viability assay, A549 cells; details: 0 to 200 µM, 48 h, mean ± SEM (n = 3), read-out: IC50 (50% cell growth inhibition) A549
Protocol: (§1) The in vitro activity of the crude extracts, fractions and isolated compounds from C. oligandrus on metabolic cell viability was assessed against A549 (adenocarcinoma human alveolar basal epithelial cell 211 line), MCF7 (human breast adenocarcinoma cell line), PC3 (human prostate cancer cell line) and PNT2 212 (human normal prostate epithelium cell line). The resulting inhibitory activity is termed “cytotoxic activity” throughout the manuscript. The cell lines were grown in RPMI medium supplemented with L-glutamine (2 mM), penicillin (100 U/mL), streptomycin (100 μg/mL) and 10% foetal bovine serum (FBS) and cultured at 37 °C, 5% CO2 and 95% humidity. For experimental use, the cells were seeded into 96-well plates (1.2 × 10^4/well) and incubated for 24 h. Cells were then treated with crude extract (0–250 µg/mL) for 24 h or isolated compounds (0 to 200 µM) for 48 h and the cell viability was measured using the MTT assay. The formazan crystals formed were dissolved in DMSO and optical density was read at 570 nm using a ClarioStar plate reader, Manchester, UK. Three individual wells were assayed per treatment; the assay was repeated three times and cytotoxic activity was determined using the percentage of absorbance compared to the control cells [(absorbance of treated cells/absorbance of untreated cells) × 100]. Doxorubicin was used as the positive control and the IC50 value of each test sample was calculated using the software Graphad Prism 7.02, La Jolla, CA, USA.

[2] = test system: MCF7 (human breast adenocarcinoma cell line); experiment: MTT cell viability assay, MCF7 cells; details: 0 to 200 µM, mean ± SEM (n = 3), read-out: IC50 (50% cell growth inhibition) MCF-7
Protocol: (§2) The resulting inhibitory activity is termed “cytotoxic activity” throughout the manuscript. The cell lines were grown in RPMI medium supplemented with L-glutamine (2 mM), penicillin (100 U/mL), streptomycin (100 μg/mL) and 10% foetal bovine serum (FBS) and cultured at 37 °C, 5% CO2 and 95% humidity. For experimental use, the cells were seeded into 96-well plates (1.2 × 10^4/well) and incubated for 24 h. […] The formazan crystals formed were dissolved in DMSO and optical density was read at 570 nm using a ClarioStar plate reader, Manchester, UK. Three individual wells were assayed per treatment; the assay was repeated three times and cytotoxic activity was determined using the percentage of absorbance compared to the control cells [(absorbance of treated cells/absorbance of untreated cells) × 100].

[3] = test system: PC3 (human prostate cancer cell line); experiment: MTT cell viability assay, PC3 cells; details: 0 to 200 µM, 48 h, mean ± SEM (n = 3), read-out: IC50 (50% cell growth inhibition) PC-3
Protocol: as §1

[4] = test system: PNT2 (human normal prostate epithelium cell line); experiment: MTT cell viability assay, PNT2 cells; details: 0 to 200 µM, 48 h, noncancerous cells, mean ± SEM (n = 3), read-out: IC50 (50% cell growth inhibition) PNT2
Protocol: as §1

[5] = test system: A549, MCF7, PC3 and PNT2 cell lines; experiment: MTT cell viability assay, statements across the cell line panel; details: Homo sapiens, positive control, read-out: IC50 range between the cell lines used
Protocol: as §2

[6] = Homo sapiens, PC-3, isolated compounds
[7] = Homo sapiens, PNT2, isolated compounds
[8] = Homo sapiens, A549, isolated compounds
[9] = Homo sapiens, MCF7, isolated compounds, 48 h

Row | Compound | IC50 [3, 6] [µM] | IC50 [1, 8] [µM] | IC50 [2, 9] [µM] | IC50 [5] [µM] | IC50 ([1]; isolated compounds) [µM] | IC50 ([2]; Homo sapiens, MCF7, 48 h, isolated compounds) [µM] | IC50 [4, 7] [µM] | IC50 ([2]; isolated compounds, 48 h) [µM] | IC50 ([3]; isolated compounds) [µM] | IC50 ([4]; isolated compounds) [µM]
1 | COC(=O)C1=CC(=O)C=C2C1(C(=O)OC)CCC(C)C21CC(c2ccoc2)OC1=O (centres unmarked) [Compound 1, megalocarpoidolide D] | > 200 | – | – | – | 63.8 ± 13.8 | 136 ± 22.7 | > 200 | – | – | –
2 | COC(=O)C1=CC(=O)C=C2C1(C(=O)OC)CCC(C)C21CC(c2ccoc2)OC1=O (stereo not drawn) [Compound 2, 12-epi-megalocarpoidolide D] | – | – | – | – | 139 ± 22.1 | – | – | 171 ± 51.4 | > 200 | > 200
3 | COC(=O)C1=CCCC2C1(C(=O)OC)CCC(C)C21CC(c2ccoc2)OC1=O (stereo not drawn) [Compound 5, 12-epi-crotocorylifuran] | > 200 | 107 ± 27.2 | > 200 | – | – | – | > 200 | – | – | –
4 | CC(=O)O[C@H]1CC[C@]2(C)[C@H]3CC[C@]4(C)C(=CC[C@@]5(C(=O)O)CCC(C)(C)C[C@H]54)[C@]3(C)CC[C@H]2C1(C)C [Compound 9, acetyl-aleuritolic acid] | 172 ± 39.7 | 137 ± 18.9 | > 200 | – | – | – | 168 ± 25.3 | – | – | –

More lines, main results first:

Row | IC50 [3, 6] [µM] | IC50 [1, 8] [µM] | IC50 [2, 9] [µM] | IC50 [5] [µM] | Compound | IC50 ([1]; isolated compounds) [µM] | IC50 ([2]; Homo sapiens, MCF7, 48 h, isolated compounds) [µM] | IC50 [4, 7] [µM] | IC50 ([2]; isolated compounds, 48 h) [µM] | IC50 ([3]; isolated compounds) [µM] | IC50 ([4]; isolated compounds) [µM]
5 | > 200 | > 200 | > 200 | – | COc1cc(C=O)ccc1O [Compound 8, vanillin] | – | – | > 200 | – | – | –
6 | 136 ± 21.1 | > 200 | > 200 | – | C=C(C)[C@@H]1CC[C@]2(C)CC[C@]3(C)[C@H](CC[C@@H]4[C@@]5(C)CC[C@H](O)C(C)(C)[C@@H]5CC[C@]43C)[C@@H]12 [Compound 10, lupeol] | – | – | > 200 | – | – | –
7 | 16.4 ± 2.9 | 1.3 ± 0.3 | 0.7 ± 0.1 | 0.7 to 16.4 | COc1cccc2c1C(=O)c1c(O)c3c(c(O)c1C2=O)C[C@@](O)(C(=O)CO)C[C@@H]3O[C@H]1C[C@H](N)[C@H](O)[C@H](C)O1 [Doxorubicin, reference compound] | – | – | 1.5 ± 0.3 | – | – | –
